Tests used:
[1] = system: GABA-induced chloride current; type: cell-based, American bullfrogs; details: dorsal root ganglion neurons
Experimental: The test was carried out according to the method of Akaike et al. reported in Journal of Physiology (London), 379, 171 (1986) using sensory neurons isolated from dosal root ganglion of American bullfrogs. Neurons were voltage-clamped at a holding membrane potential of -50 mV with a single-electrode voltage-clamp system. Test compounds were applied by using a concentration-clamp technique. When the peak Cl⁻ current (ICl) elicited by 3 x 10⁻⁶ M GABA alone was presented as 1, the augumentive ICl of the test compounds in the presence of 3 x 10⁻⁶ M GABA was measured. The results were presented as relative ICl values in Table 1.

[2] = biological target: benzodiazepine (BZP) receptors; test: Displacement ability for benzodiazepine receptor (tritiated diazepam binding, crude synaptosome fraction of cerebral cortex); design: species or system Wistar rats; details: displacement of tritiated diazepam (2 nM), 0°C, 20 minutes, rat cerebral cortex synaptosome fraction
Experimental: The test of specific binding to benzodiazepine (BZP) receptors was carried out according to the method described in Life Science, vol. 20, 2101 (1977).
The crude synaptosome fraction isolated from the cerebral cortex of male Wistar rats aged 9-10 weeks, was suspended in 50 mM Trishydrochloric acid buffer (pH 7.4) containing 120 mM sodium chloride and 5 mM potassium chloride. The suspension was used for the following experiment.
The test compound in several different concentrations and tritiated diazepam (in final concentration of 2 nM) were added to the synaptosomal suspension, and the mixture was incubated at 0°C for 20 minutes. The suspension was filtered with Whatman GF/B (Trademark) glassfiber filter. After the filter was washed with the above-mentioned buffer, the radio activity left on the filter was measured with a liquid scintillation counter.
The specific binding was determined by subtracting the binding in the presence of 10⁻⁶ M unlabelled diazepam from total binding.
The affinity for benzodiazepine receptors of the compound of the present invention is evaluated from its displacement ability for tritiated diazepam at its binding site, which is represented by Ki value (nM).

male ddY mice = test: Acute toxicity; type: in vivo; details: 5 days
Experimental: Groups of 5 male ddY mice were used. […] Similarly, the mice were orally administered with 1000 mg/kg of the compound, but they survived for 5 days after the administration.

Relative ICl [1]	Ki [2]	Structure (SMILES)	survival after administration (male ddY mice; 300 mg/kg intraperitoneally, groups of 5 male ddY mice)	survival after administration (male ddY mice; 1000 mg/kg orally, male ddY mice)
1.38	4.2 nM	CC(=O)c1cc2c(s1)CCCC1CC(=O)N(c3ccc(Cl)cc3)N=C21 (stereo not shown) [Example 18, 9-acetyl-2-(4-chlorophenyl)-2,4,4a,5,6,7-hexahydro-3H-thieno[2',3':6,7]cyclohepta[1,2-c]pyridazin-3-one]		
		O=C(c1ccccc1)c1cc2c(s1)CCC1CC(=O)N(c3ccc(Cl)cc3)N=C21 (stereo not shown) [Example 16, 8-benzoyl-2-(4-chlorophenyl)-4,4a,5,6-tetrahydrothieno[2,3-h]cinnolin-3(2H)-one]	all mice survived	survived
